Experimental data: patent US20060147936A1, “Use of a gene mutation in the human gnas gene for predicting risks of diseases, courses of the disease and for predicting the response to disease therapies” (priority 2003, published 2006)

Experiments:
[1] = placebo-controlled, double blind study of sibutramine in obese patients: loss of weight after one year; assay type: in vivo, human; settings: 15 mg/day for one year
Description: (§1) In the context of a placebo-controlled, double blind study, obese patients were given 15 mg sibutramine/day for one year. Sibutramine is a centrally active re-uptake inhibitor of noradrenaline and serotonin, both of which act through G protein-coupled receptors. Sibutramine (trade-name: Reductil, Meridia) enhances the feeling of satiety and makes it easier to lose weight in the context of structured measures to reduce weight (increase in physical activity, reduction in calorie intake). The outcome parameter of the study was the weight loss after one year.
The placebo or sibutramine (15 mg/day) were administered for one year. The loss of weight after one year (%) is illustrated, in dependence on the GNAS T393C genotype.
In addition, the study population was genotyped with respect to the GNAS G(-1211)A polymorphism (FIG. 19B). […] Placebo or sibutramine (15 mg/day) was administered for one year. The loss of weight (%) after one year is illustrated in dependence on the GNAS G(1211)A genotype. In the placebo group, patients with GNAS (-1211) GG genotype clearly could lose weight better(7.3%) than those with the AA- and AG genotype (1.8 and 3.1%, respectively). […] Thus therapy with sibutramine is predominantly indicated for patients with AG/AA genotype, whereas patients with CC genotype can also lose weight well under placebo. The time courses of the loss of weight for each genotype of the 393CT393C polymorphism (sibutramine versus placebo) are shown in FIGS. 20A, 20B and 20C. FIGS. 20 A, B and C illustrate the individual time courses for the changes in weight with placebo or sibutramine for the GNAS 393 CC genotype (A), the TC genotype (B) and the TT genotype (C). It is evident that only the TC and TT genotypes benefit from therapy with 15 mg sibutramine daily, whereas CC genotypes can lose weight without drug.

[2] = cardiovascular side-effects (heart rate, blood pressure) under therapy with sibutramine versus placebo; assay type: in vivo, human
Description: as §1
The connection between gene modifications in the GNAS gene and the change in heart rate was examined after treatment with sibutramine versus placebo (FIG. 25). The effects are illustrated as they depend on the T393C polymorphism. […] FIG. 26 makes clear the possible use of a gene modification in the human GNAS gene to predict the increase in diastolic blood pressure during treatment with sibutramine.
FIG. 27 illustrates once again the possible use of a gene modification in the human GNAS gene to predict an increase in the heart rate during therapy with sibutramine. This illustrates the effects, in dependence on genotypes of the G(-1211)A polymorphism. […] Finally, FIG. 28 illustrates the possibility of an additional use of a gene modification in the human GNAS gene in the prediction of an increase in systolic blood pressure during therapy with sibutramine.

[3] = metformin therapy for 12 months in women with PCOS: HOMA-IR index and BMI; assay type: in vivo, human; settings: metformin 12 months
Description: Polycystic ovarian syndrome (PCOS) is a frequent endocrine disease, characterized by chronic anovulation and hyperandrogenism. About 5% of all premenopausal women are affected by this. […] Treatment of PCOS patients with metformin improves fertility and androgen levels, reduces insulin resistance and facilitates weight reduction. For this purpose, women with the PCOS syndrome were treated with metformin for 12 months. Changes in the Body Mass Index (BMI) and insulin resistance according to the HOMA-IR method (homeostasis model assessment for insulin resistance) were investigated, together with the GNAS genotypes of the T393C polymorphism. FIG. 22A shoes the influence of therapy with an oral antidiabetic(metformin) on insulin resistance(A) and Body Mass Index (BMI; B) in women with polycystic ovaries. As already mentioned, therapy was carried out with metformin for 12 months. The change in the HOMA-IR index is given as a measure of the insulin resistance. It is evident that the most marked improvement of the HOMA-IR index is in individuals with the CC genotype(2.9), in contrast to 2.2 with the TC genotype and only 0.9 with the TT genotype. […] The changes in the BMI (a measure of body fat) behave similarly. […] This includes not only metformin, but also the so-called glitazones, tolbutamide, sulfonylureas and their derivatives, glinides and arcabose.

human fat cells = experiment: isoprenaline-stimulated lipolysis (glycerol release) in human fat cells ex vivo; assay type: cell-based; settings: compared with other genotypes
Source text: For this purpose, human fat cells ex vivo were stimulated with isoprenaline and lipolysis quantified on the basis of glycerol release (Hauner H et al. Effects of the G protein beta3 subunit 825T allele on adipogenesis and lipolysis in cultured human preadipocytes and adipocytes. Horm Metab Res. 2002;34(9):475-80). […] This agrees with the observation of increased expression of Gαs protein in this genotype.
In fat cells from humans with the GG genotype, there is increased lipolysis, measured as the release of glycerol. […] This also agrees with the observation that persons with the GG genotype on a low calorie diet lose more weight than persons with the AA/AG genotype.

## CC(C)CC(N(C)C)C1(c2ccc(Cl)cc2)CCC1 (stereo not shown) [sibutramine]
[1]; GNAS G(-1211)A AG and AA genotype
  loss of weight after one year, sibutramine vs placebo: marked (p=0.027) increase in the loss of weight
[1]; GNAS G(-1211)A GG genotype
  loss of weight after one year, sibutramine vs placebo: favorable drug effect was not observed
[1]; GNAS T393C CC genotype
  loss of weight after one year, sibutramine vs placebo: favorable drug effect was not observed
[1]; GNAS T393C TC and TT genotype
  loss of weight after one year, sibutramine vs placebo: clear (p=0.027) increase in the loss of weight
[2]; GNAS 393 CC and TC genotypes
  change in diastolic blood pressure during therapy with sibutramine: does not occur
[2]; GNAS 393 TT genotype
  change in diastolic blood pressure during therapy with sibutramine: significant increase
[2]; GNAS -1211 GG genotype
  change in systolic blood pressure under therapy with sibutramine: lack of reduction of the systolic blood pressure
[2]; GNAS G(-1211)A GG genotype compared with AA/AG genotypes
  change in heart rate (sibutramine versus placebo): significantly greater change in heart rate
[2]; GNAS T393C CC genotype
  increase in heart rate with sibutramine versus placebo: This effect does not occur
[2]; GNAS T393C TC genotype
  increase in heart rate with sibutramine versus placebo: 10 beats per minute
[2]; GNAS T393C TT genotype
  increase in heart rate with sibutramine versus placebo: 20 beats per minute

## CN(C)C(=N)N=C(N)N [metformin]
[3]; GNAS T393C CC genotype
  decrease in the BMI: 15.8%
  improvement of the HOMA-IR index (insulin resistance): 2.9
[3]; GNAS T393C TC genotype
  decrease in the BMI: 4.8%
  improvement of the HOMA-IR index (insulin resistance): 2.2
[3]; GNAS T393C TT genotype
  decrease in the BMI: 1.5%
  improvement of the HOMA-IR index (insulin resistance): 0.9

## CC(C)NCC(O)c1ccc(O)c(O)c1 (stereo not shown) [isoprenaline]
Human fat cells; fat cells from humans with GNAS G(-1211)A GG genotype
  stimulation of lipolysis (glycerol release): most marked stimulation of lipolysis
Human fat cells; fat cells from individuals with GNAS 393 TT genotype
  stimulation of lipolysis (glycerol release): most marked stimulation of lipolysis
